Data published in the NIST ThermoML archive (doi:10.1021/je900902z).
Numbers after ± are expanded uncertainties.

Details: DTA; for Triple point temperature: Crystal 2; for Normal melting temperature: Crystal

`O=S(=O)([N-]S(=O)(=O)C(F)(F)C(F)(F)F)C(F)(F)C(F)(F)F.[Cs+]` [cesium bis((perfluoroethyl)sulfonyl)amide] gave a Triple point temperature of 369 ± 2 K and a Normal melting temperature of 253 ± 2 °C.

For `O=S(=O)([N-]S(=O)(=O)C(F)(F)C(F)(F)F)C(F)(F)C(F)(F)F.[Li+]` [lithium bis(pentafluoroethylsulfonyl)amide], the Triple point temperature was 485 ± 2 K and the Normal melting temperature was 328 ± 2 °C.

`O=S(=O)([N-]S(=O)(=O)C(F)(F)C(F)(F)F)C(F)(F)C(F)(F)F.[K+]` [potassium bis(pentafluoroethylsulfonyl) amide] showed a Triple point temperature of 427 ± 2 K and a Normal melting temperature of 273 ± 2 °C.

With `O=S(=O)([N-]S(=O)(=O)C(F)(F)C(F)(F)F)C(F)(F)C(F)(F)F.[Rb+]` [rubidium bis((perfluoroethyl)sulfonyl)amide] the Triple point temperature was 419 ± 2 K and the Normal melting temperature was 266 ± 2 °C.

`O=S(=O)([N-]S(=O)(=O)C(F)(F)C(F)(F)F)C(F)(F)C(F)(F)F.[Na+]` [sodium bis(pentafluoroethylsulfonyl)amide] showed a Triple point temperature of 454 ± 2 K and a Normal melting temperature of 266 ± 2 °C.
